Measured values from US11028069B2, “Salt of substituted piperidine compound” (TAIHO PHARMACEUTICAL CO., LTD., priority 2016, dated 2021).
Structures can show the parent of a compound that is named as a salt.

Experiments:
[1] = Absorption test, oral administration to mice, plasma concentration by LC/MS; assay type: in vivo; settings: BALB/cA mice, 50 mg/kg in terms of Compound 1, suspended in 0.5% HPMC
Description: The hydrochloride salt of Compound 1 was suspended in 0.5% HPMC, and orally administered to BALB/cA mice at 50 mg/kg in terms of the dose of Compound 1. At 0.5, 1, 2, 4, and 6 hours after the oral administration, the blood was collected from the eyeground, and the plasma was obtained. The compound concentration in the obtained plasma was measured by LC/MS (Agilent Technologies Inc. Agilent 1200, AB Sciex Pte. Ltd. AB Sciex API400) and the oral absorption was evaluated.

[2] = Stability test (solid change) by DSC measurement; assay type: physicochemical; settings: crystals, 10° C./min, room temperature to 300° C.
Description: The DSC measurement was conducted according to the following test conditions. • Equipment: TA Instruments Q1000 • Sample: about 5 mg • Rate of temperature increase: 10° C./min • Measurement temperature: Room temperature to 300° C.

[3] = Solubility measurement, Japanese Pharmacopoeia Dissolution test; assay type: physicochemical; settings: crystals; for solubility, 1st fluid for dissolution test: Japanese Pharmacopoeia 1st fluid for dissolution test; for solubility, 2nd fluid for dissolution test: Japanese Pharmacopoeia 2nd fluid for dissolution test
Description: The solubility measurement was conducted on the hydrochloride salt, the mesylate salt, the potassium salt, and the sodium salt of Compound 1 and the free form of Compound 1. Specifically, the solubility of the samples: the crystals of the hydrochloride salt of Compound 1 produced in Example 1; the crystals of the mesylate salt of Compound 1 produced in Comparative Example 1; the crystals of the potassium salt of Compound 1 produced in Comparative Example 2; the crystals of the sodium salt of Compound 1 produced in Comparative Example 3; and the crystal of the free form of Compound 1, in the 1st and 2nd fluids for dissolution test according to Japanese Pharmacopoeia was measured according to Japanese Pharmacopoeia, Dissolution test.

[4] = Dynamic vapor sorption system (DVS) analysis (hygroscopicity); assay type: physicochemical; settings: increase of humidity from 5% to 75% RH, 25° C.
Description: The dynamic vapor sorption system (DVS) analysis was conducted under the following conditions. • Equipment: TA Instruments VTI SGA-100 • Sample: about 10 mg • Measurement temperature: 25° C. • RH steps: 5-95-1% RH by 5% RH
The hygroscopicity of the hydrochloride salt of Compound 1 obtained in Example 1 and the potassium salt obtained in Comparative Example 2 was examined by dynamic vapor sorption system (DVS) analysis. The adsorption and desorption data was collected at 5% relative humidity (RH) intervals in the range of 5% to 95% RH. Before the measurement, the temperature was increased at 1° C./min to 25° C. under nitrogen purging and the salts were dried for up to 6 hours until the weight change in 5 minutes became less than 0.0100%. At the time of the measurement, up to 2 hours of equilibration was conducted until the weight change in 5 minutes became less than 0.0100%.

[5] = Stability test (purity) by liquid chromatography after storage; assay type: physicochemical; settings: for purity (%) in samples, 40° C. (open system): crystals left at 40° C. (open system) for 1 month; for purity (%) in samples, 60° C. (open system): crystals left at 60° C. (open system) for 1 month; for purity (%) in samples, under light irradiation: crystals left under light irradiation (1200000 Lux·hr) for 1 month; for purity (%) in samples, before starting test: crystals
Description: The measurement by liquid chromatography was conducted according to the following test conditions. • Equipment: Agilent Technologies, Inc., 1200 Series Binary LC System • Mobile phase A: 10 mM Na2HPO4 aqueous solution (pH 6.5) • Mobile phase B: Acetonitrile • Gradient: described in Table 1 • Column: Ascentis Express C18, 150 mm×4.6 mm i.d., 2.7 μm • Measurement wavelength: 210 nm
The crystals of the hydrochloride salt, the mesylate salt, the potassium salt, the sodium salt, and the free form of Compound 1 obtained in Example 1 and Comparative Examples 1 to 4 were each left under conditions at 40° C. (open system), at 60° C. (open system), and under light irradiation (1200000 Lux·hr) for 1 month. Subsequent measurement of purity by liquid chromatography indicated the purity change between before and after the test was 0.2% or less in any of the conditions.

Plasma concentration AUC0-6 h [1] [µM·h] | DSC chart: endothermic and exothermic processes at relatively low temperatures (solid change) [2] | solubility, 1st fluid for dissolution test [3] [µg/mL] | solubility, 2nd fluid for dissolution test [3] [µg/mL] | weight change in DVS analysis ([4]; listed as hydrochloride salt of Compound 1) | weight change in DVS analysis ([4]; listed as hydrochloride salt of the present invention) | purity (%) in samples, 40° C. (open system) [5] [%] | purity (%) in samples, 60° C. (open system) [5] [%] | purity (%) in samples, under light irradiation [5] [%] | purity (%) in samples, before starting test [5] [%] | weight change in DVS analysis [4] | weight change in DVS analysis ([4]; listed as sodium salt of Compound 1) [%] | Compound
0.43 | such charts were not obtained | 24 | 6 | – | – | – | – | – | – | – | – | Cc1cc(Nc2nc(CC3(C(=O)O)CCN(C(=O)c4cccc(Cl)c4Cl)CC3)ccc2F)n[nH]1 [Free form, 1-(2,3-dichlorobenzoyl)-4-((5-fluoro-6-(5-methyl-1H-pyrazol-3-ylamino)pyridin-2-yl)methyl)piperidine-4-carboxylic acid]
18.2 | such charts were not obtained | >1000 | >1000 | less than 0.5% | less than 0.5% | 99.2 | 99.3 | 99.4 | 99.4 | – | – | Cc1cc(Nc2nc(CC3(C(=O)O)CCN(C(=O)c4cccc(Cl)c4Cl)CC3)ccc2F)n[nH]1 [Hydrochloride salt, 1-(2,3-dichlorobenzoyl)-4-((5-fluoro-6-(5-methyl-1H-pyrazol-3-ylamino)pyridin-2-yl)methyl)piperidine-4-carboxylic acid]
– | such charts were not obtained | 490 | 420 | – | – | – | – | – | – | – | – | Cc1cc(Nc2nc(CC3(C(=O)O)CCN(C(=O)c4cccc(Cl)c4Cl)CC3)ccc2F)n[nH]1 [Mesylate salt, 1-(2,3-dichlorobenzoyl)-4-((5-fluoro-6-(5-methyl-1H-pyrazol-3-ylamino)pyridin-2-yl)methyl)piperidine-4-carboxylic acid]

Compound | Plasma concentration AUC0-6 h [1] [µM·h] | DSC chart: endothermic and exothermic processes at relatively low temperatures (solid change) [2] | solubility, 1st fluid for dissolution test [3] [µg/mL] | solubility, 2nd fluid for dissolution test [3] [µg/mL] | weight change in DVS analysis ([4]; listed as hydrochloride salt of Compound 1) | weight change in DVS analysis ([4]; listed as hydrochloride salt of the present invention) | purity (%) in samples, 40° C. (open system) [5] [%] | purity (%) in samples, 60° C. (open system) [5] [%] | purity (%) in samples, under light irradiation [5] [%] | purity (%) in samples, before starting test [5] [%] | weight change in DVS analysis [4] | weight change in DVS analysis ([4]; listed as sodium salt of Compound 1) [%]
Cc1cc(Nc2nc(CC3(C(=O)O)CCN(C(=O)c4cccc(Cl)c4Cl)CC3)ccc2F)n[nH]1 [Potassium salt, 1-(2,3-dichlorobenzoyl)-4-((5-fluoro-6-(5-methyl-1H-pyrazol-3-ylamino)pyridin-2-yl)methyl)piperidine-4-carboxylic acid] | – | charts suggesting endothermic and exothermic processes at relatively low temperatures were obtained | >1000 | 730 | – | – | 99.7 | 99.8 | 99.8 | 99.8 | exceeded 14% | –
Cc1cc(Nc2nc(CC3(C(=O)O)CCN(C(=O)c4cccc(Cl)c4Cl)CC3)ccc2F)n[nH]1 [Sodium salt, 1-(2,3-dichlorobenzoyl)-4-((5-fluoro-6-(5-methyl-1H-pyrazol-3-ylamino)pyridin-2-yl)methyl)piperidine-4-carboxylic acid] | – | charts suggesting endothermic and exothermic processes at relatively low temperatures were obtained | >1000 | >1000 | – | – | – | – | – | – | – | ≥ 40
